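Results reflect a 48-hour exposure of cells in 96-well plates to compound at five concentrations. Here, GI50 denotes the concentration required for 50% inhibition of growth. TGI marks complete inhibition of growth.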
Assays:
Experiment in all cases: NCI anticancer screen, dose series, 48 h; in the data active means GI50 below about 0.43 µM; inactive means the rest
[1] = test system: OVCAR-4 ovarian
[2] = test system: PC-3 prostate
[3] = test system: A498 renal
[4] = test system: MOLT-4 leukemia
[5] = test system: HS 578T breast
[6] = test system: SK-MEL-5 melanoma
[7] = test system: HCT-15 colon
[8] = test system: COLO 205 colon
[9] = test system: MALME-3M melanoma
[10] = test system: NCI-H23 lung
[11] = test system: LOX IMVI melanoma
[12] = test system: HOP-92 NSCLC
[13] = test system: MCF7 breast
[14] = test system: MDA-MB-231 breast
[15] = test system: UACC-257 melanoma
[16] = test system: CAKI-1 renal
[17] = test system: OVCAR-3 ovarian
[18] = test system: UACC-62 melanoma
[19] = test system: EKVX NSCLC
[20] = test system: U251 CNS
[21] = test system: KM12 colon
[22] = test system: OVCAR-8 ovarian
[23] = test system: OVCAR-5 ovarian
[24] = test system: MDA-MB-435
[25] = test system: SNB-19 CNS
[26] = test system: SF-268 CNS
[27] = test system: SK-OV-3 ovarian
[28] = test system: T-47D breast
[29] = test system: NCI-H226 lung
[30] = test system: ACHN renal
[31] = test system: HCC-2998 colon
[32] = test system: HT29 colon
[33] = test system: K-562 leukemia
[34] = test system: MDA-MB-468 breast
[35] = test system: TK-10 renal
[36] = test system: NCI-H460 lung
[37] = test system: 786-0 renal
[38] = test system: RXF 393 renal
[39] = test system: BT-549 breast
[40] = test system: RPMI-8226 leukemia
[41] = test system: A549 NSCLC
[42] = test system: SF-295 CNS
[43] = test system: CCRF-CEM leukemia
[44] = test system: NCI-H522 lung
[45] = test system: SNB-75 CNS
[46] = test system: IGROV1 ovarian
[47] = test system: SK-MEL-28 melanoma
[48] = test system: HOP-62 NSCLC
[49] = test system: HCT-116 colon
[50] = test system: SK-MEL-2 melanoma
[51] = test system: SN12C renal
[52] = test system: UO-31 renal
[53] = test system: SW-620 colon
[54] = test system: DU-145 prostate
[55] = test system: NCI/ADR-RES ovarian
[56] = test system: SF-539 CNS
[57] = test system: HL-60(TB) leukemia
[58] = test system: M14 melanoma
[59] = test system: SR leukemia

N/C(=N\c1nc2ccccc2s1)NC(=O)Nc1ccccc1[N+](=O)[O-]
42.5 µM: TGI [1]
4.66 µM: TGI [14]
6.56 µM: TGI [39]
active: GI50 [2] 0.143 µM | GI50 [4] 0.195 µM | GI50 [5] 0.0615 µM | GI50 [6] 0.0527 µM | GI50 [7] 0.0482 µM | GI50 [8] 0.169 µM | GI50 [9] 0.103 µM | GI50 [10] 0.266 µM | GI50 [11] 0.0698 µM | GI50 [13] 0.168 µM | GI50 [14] 0.139 µM | GI50 [16] 0.0635 µM | GI50 [17] 0.0514 µM | GI50 [18] 0.0459 µM | GI50 [19] 0.248 µM | GI50 [20] 0.0555 µM | GI50 [21] 0.0605 µM | GI50 [22] 0.201 µM | GI50 [23] 0.376 µM | GI50 [24] 0.0242 µM | GI50 [25] 0.151 µM | GI50 [27] 0.236 µM | GI50 [30] 0.111 µM | GI50 [31] 0.203 µM | GI50 [32] 0.0621 µM | GI50 [33] 0.0424 µM | GI50 [34] 0.228 µM | GI50 [36] 0.0568 µM | GI50 [37] 0.186 µM | GI50 [38] 0.0472 µM | GI50 [39] 0.202 µM | GI50 [40] 0.341 µM | GI50 [41] 0.346 µM | GI50 [42] 0.055 µM | GI50 [43] 0.0555 µM | GI50 [44] 0.033 µM | GI50 [45] 0.0363 µM | GI50 [46] 0.108 µM | GI50 [48] 0.104 µM | GI50 [49] 0.0431 µM | GI50 [50] 0.0329 µM | GI50 [51] 0.258 µM | GI50 [52] 0.244 µM | GI50 [53] 0.0529 µM | GI50 [54] 0.327 µM | GI50 [55] 0.045 µM | GI50 [56] 0.0399 µM | GI50 [57] 0.0341 µM
9.44 µM: TGI [22]
1.59 µM: TGI [6]
19.6 µM: TGI [25] | TGI [48]
inactive: GI50 [1] 8.07 µM | GI50 [3] 17.2 µM | GI50 [12] 4.58 µM | GI50 [15] 12.2 µM | GI50 [26] 2.36 µM | GI50 [28] 0.538 µM | GI50 [29] 0.571 µM | GI50 [35] 12.9 µM | GI50 [47] 1.2 µM
> 59.9 µM: TGI [40]
28.4 µM: TGI [35]
16.6 µM: TGI [43]
6.1 µM: TGI [31]
16.1 µM: TGI [16]
0.0728 µM: TGI [24]
10.8 µM: TGI [42]
13.1 µM: TGI [23]
25 µM: TGI [15]
16.7 µM: TGI [9]
0.363 µM: TGI [44]
12.7 µM: TGI [46] | TGI [51]
14 µM: TGI [18] | TGI [20] | TGI [21]
16.8 µM: TGI [10]
0.345 µM: TGI [55]
0.573 µM: TGI [34]
17.9 µM: TGI [19]
6.76 µM: TGI [36]
16.3 µM: TGI [30]
0.781 µM: TGI [8]
> 100 µM: TGI [33] | TGI [57]
12.6 µM: TGI [13]
16.9 µM: TGI [41]
26.3 µM: TGI [12]
9.26 µM: TGI [29]
11.3 µM: TGI [7]
0.499 µM: TGI [38]
36.8 µM: TGI [26]
17.1 µM: TGI [52]
13.4 µM: TGI [54]
11.6 µM: TGI [11]
28.8 µM: TGI [2]
32.8 µM: TGI [3]
6.06 µM: TGI [49]
13.6 µM: TGI [37]
0.273 µM: TGI [56]
31.1 µM: TGI [27]
19.5 µM: TGI [53]
12.5 µM: TGI [45]
25.7 µM: TGI [28]
> 51.3 µM: TGI [4]
18.7 µM: TGI [5]
20.6 µM: TGI [47]
3.02 µM: TGI [50]
9.13 µM: TGI [17]
0.645 µM: TGI [32]

COc1ccc(C(=O)/C=C/c2ccc(OCc3ccc(F)cc3)c(OC)c2)cc1OC
60.9 µM: TGI [24]
29 µM: TGI [6]
60 µM: TGI [39]
inactive: GI50 [1] 3.94 µM | GI50 [2] 6.1 µM | GI50 [3] 26.1 µM | GI50 [4] 4.07 µM | GI50 [5] 23 µM | GI50 [6] 10.4 µM | GI50 [7] 3.09 µM | GI50 [8] 7.93 µM | GI50 [9] 27.5 µM | GI50 [10] 4.44 µM | GI50 [11] 3.06 µM | GI50 [12] 7.53 µM | GI50 [13] 3.04 µM | GI50 [14] 3.95 µM | GI50 [15] 23.2 µM | GI50 [58] 22.6 µM | GI50 [16] 6.01 µM | GI50 [17] 4.64 µM | GI50 [18] 4.41 µM | GI50 [19] 5.19 µM | GI50 [20] 3.79 µM | GI50 [21] 4.31 µM | GI50 [22] 3.46 µM | GI50 [23] 3.32 µM | GI50 [24] 5.06 µM | GI50 [25] 4.11 µM | GI50 [26] 12 µM | GI50 [27] 34.8 µM | GI50 [28] 5.34 µM | GI50 [29] 4.7 µM | GI50 [30] 6.46 µM | GI50 [31] 3 µM | GI50 [32] 3.02 µM | GI50 [33] 3.72 µM | GI50 [34] 2.74 µM | GI50 [35] 14.3 µM | GI50 [36] 5.88 µM | GI50 [37] 30 µM | GI50 [39] 3.62 µM | GI50 [40] 2.7 µM | GI50 [41] 4.81 µM | GI50 [42] 3.99 µM | GI50 [43] 3.49 µM | GI50 [44] 3.39 µM | GI50 [45] 17.3 µM | GI50 [46] 3.88 µM | GI50 [47] 29.3 µM | GI50 [48] 3.55 µM | GI50 [49] 3.57 µM | GI50 [50] 13.4 µM | GI50 [51] 2.95 µM | GI50 [52] 3.7 µM | GI50 [53] 3.8 µM | GI50 [54] 5.64 µM | GI50 [59] 3.18 µM | GI50 [55] 2.86 µM | GI50 [56] 3.36 µM | GI50 [57] 10.4 µM
71.6 µM: TGI [44]
16.7 µM: TGI [56]
> 100 µM: TGI [1] | TGI [2] | TGI [3] | TGI [4] | TGI [5] | TGI [7] | TGI [8] | TGI [9] | TGI [11] | TGI [12] | TGI [13] | TGI [14] | TGI [15] | TGI [58] | TGI [16] | TGI [17] | TGI [18] | TGI [19] | TGI [20] | TGI [21] | TGI [22] | TGI [23] | TGI [25] | TGI [26] | TGI [27] | TGI [28] | TGI [29] | TGI [30] | TGI [32] | TGI [33] | TGI [34] | TGI [35] | TGI [36] | TGI [37] | TGI [40] | TGI [41] | TGI [42] | TGI [43] | TGI [46] | TGI [47] | TGI [48] | TGI [49] | TGI [51] | TGI [52] | TGI [53] | TGI [54] | TGI [59] | TGI [57]
16.4 µM: TGI [31]
16.2 µM: TGI [55]
99.2 µM: TGI [45]
79.3 µM: TGI [10]
47.6 µM: TGI [50]

Reference: PubChem BioAssay (NCI)
